We go through one molecule from US20070026072A1, “Benzoquinones of enhanced bioavailability” (priority 2005, published 2007).

Each structure is given as a SMILES string.

A short description of series [1]: Dissolution, USP apparatus II (paddles), media containing Cremophor EL and 4% Acconon MC8. Type of series: physicochemical. To be noted: Example 6. The protocol:
Dissolution properties were measured on the four spray dried powders of Example 1, crystalline CoQ10 and two commercial CoQ10 products (one soft gel and one dry powder capsule). All non-commercial samples were hand-filled into size 1 gelatin capsules (Shinogi Qualicaps). USP apparatus II (paddles) (VK 70100®, Varian Inc.) was used, with a bath temperature of 37° C. at 50 rpm for the first 60 minutes and then 200 rpm for an additional 15 minutes. The media contained Cremophoro EL (BASF Corp.), and 4% Acconono® MC8 (Abitec Corp.). Analysis was performed using high pressure liquid chromatography (HPLC) with UV detection (SCL-10 controller with SPD-10A detector module, Shimadzu Scientific Instruments)

Series [2] is described as follows: Crystallinity of CoQ10 by modulated differential scanning calorimetry (MDSC). The format is physicochemical. To be noted: Example 6, 20% total solids; MDSC heat-only, aluminum hermetic pans. From the text:
Four spray dried powders were made containing CoQ10 and two solubility-enhancing polymers at two CoQ10:polymer ratios for each polymer.
For orientation: Differential scanning calorimetry records heat flow against a reference as temperature is scanned.

The mark [3] stands for this setting: dissolution method of Example 2.

Take `COC1=C(OC)C(=O)C(C/C=C(\C)CC/C=C(\C)CC/C=C(\C)CC/C=C(\C)CC/C=C(\C)CC/C=C(\C)CC/C=C(\C)CC/C=C(\C)CC/C=C(\C)CCC=C(C)C)=C(C)C1=O` [CoQ10 (as received), Coenzyme Q10]: in series [1] (setting [3]), the “t50% (time for 50% CoQ10 dissolution)” value was “not attained” and the “t80% (time for 80% CoQ10 dissolution)” value is reported as “not attained”. Also, the “max. CoQ10 release” value in series [1] (dissolution method of Example 2, 75 minutes) stood at 4.3%. In series [2], this molecule yielded a crystallinity of 100%.
